Measured values taken from patent US20050282840A1, “Methods of modulating neurotrophin-mediated activity” (PainCeptor Pharma Corporation, priority 2004, published 2005).
Read-outs that look alike come from different tables or passages of the source.

Assays:
[1] = target: T1, p75^NTR receptors (PC12 cells) (Rattus norvegicus, UniProt P07174); experiment: Basic screening assay: binding of 125I-BDNF to PC12 cells; settings: read-out: BDNF Activity % Maximal Binding
T1 construct: endogenous in cells; host or cells: PC12 cells
T1 sequence (P07174 30-425): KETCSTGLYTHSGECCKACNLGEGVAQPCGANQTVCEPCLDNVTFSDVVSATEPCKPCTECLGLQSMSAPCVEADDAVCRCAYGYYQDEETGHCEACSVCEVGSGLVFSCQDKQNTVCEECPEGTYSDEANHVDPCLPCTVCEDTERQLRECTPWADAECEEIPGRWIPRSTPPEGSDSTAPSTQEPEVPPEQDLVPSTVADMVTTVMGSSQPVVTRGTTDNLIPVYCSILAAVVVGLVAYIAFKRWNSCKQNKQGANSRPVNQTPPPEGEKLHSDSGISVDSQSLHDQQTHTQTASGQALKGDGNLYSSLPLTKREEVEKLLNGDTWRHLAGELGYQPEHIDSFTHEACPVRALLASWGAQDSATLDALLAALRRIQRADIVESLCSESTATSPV
T1 sequence (P23560 129-247 partner): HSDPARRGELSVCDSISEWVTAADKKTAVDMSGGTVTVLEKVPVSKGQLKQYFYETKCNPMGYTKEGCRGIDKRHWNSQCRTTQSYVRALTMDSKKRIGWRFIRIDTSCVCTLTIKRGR
Method in brief: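 4×10^6 PC12 cells incubated 2 h at 4° C, rotating, with 0.5 nM ^125I-BDNF (final) and compound at 50 μM, in duplicate or more. Bound ligand separated through 10% glycerol by centrifugation and counted by gamma counter; specific binding is Bmax minus NSB; inhibitors followed up for EC50.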

[2] = tested on: p75^NTR receptors (PC12 cells); experiment: Basic screening assay: binding of 125I-NGF to PC12 cells; settings: test compound 50 μM, 0.5 nM 125I-NGF, PC12 cells, 2 h at 4° C., specific binding as percent of control
Method in brief: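 PC12 cells (4×10^6) incubated 2 h at 4° C with 0.5 nM 125I-NGF and test compound at 50 μM, rotating. Bound tracer pelleted through 10% glycerol and gamma-counted; specific binding expressed as percent of control after NSB subtraction.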

[3] = Table 4, test compound 50 μM, 0.5 nM 125I-BDNF, PC12 cells, 2 h at 4° C., specific binding as percent of control
[4] = Table 1, test compound 50 μM, 0.5 nM 125I-BDNF, PC12 cells, 2 h at 4° C., specific binding as percent of control

SMILES | activity at 50 µM [1, 3] [%] | NGF Activity % Maximal Binding ([2]; Table 4) | activity at 50 µM [1, 4] [%] | NGF Activity % Maximal Binding ([2]; Table 1) | also measured
Cc1c(C(=O)O)cccc1-c1ccc(/C=C2/NC(=O)N(c3cccc(Cl)c3)C2=O)o1 [Compound 130, 3-{5-[1-(3-Chlorophenyl)-2,5-dioxo-imidazolidin-4-ylidenemethyl]furan-2-yl}-2-methylbenzoic acid] | > 50 | * (50 < *) |  |  | 
CCOC(=O)CN1C(=O)S/C(=C\c2ccc(-c3ccc([N+](=O)[O-])cc3)o2)C1=O [Compound 117, {5-[5-(4-Nitrophenyl)furan-2-ylmethylene]-2,4-dioxo-thiazolidin-3-yl}-acetic acid ethyl ester] | > 50 | * (50 < *) |  |  | 
CCN1C(=O)S/C(=C/c2ccc(-c3ccc([N+](=O)[O-])cc3OC)o2)C1=O [Compound 58, 3-Ethyl-5-[5-(2-methoxy-4-nitrophenyl)furan-2-ylmethylene]-thiazolidine-2,4-dione] |  |  | 40 to 50 | * (50 < *) | 
O=C(O)CCCN1C(=O)C(=Cc2ccc(-c3ccc([N+](=O)[O-])cc3)o2)SC1=S [Compound 98, 4-{5-[5-(4-Nitrophenyl)furan-2-ylmethylene]-4-oxo-2-thioxo-thiazolidin-3-yl}-butyric acid] | > 50 | * (50 < *) |  |  | 
Cc1c(-c2ccc(C=C3C(=O)NC(=S)NC3=O)o2)ccc([N+](=O)[O-])c1C [Compound 71, 5-[5-(2,3-Dimethyl-4-nitrophenyl)furan-2-ylmethylene]-2-thioxo-dihydro-pyrimidine-4,6-dione] |  |  |  |  | activity at 50 µM [1]: 0 to 10%; NGF Activity % Maximal Binding ([2]; Table 2): X (40 < X < 50)
COC(=O)CN1C(=S)N(C)C(=O)/C1=C/c1ccc(-c2ccc([N+](=O)[O-])cc2)o1 [Compound 141, {3-Methyl-5-[5-(4-nitrophenyl)furan-2-ylmethylene]-4-oxo-2-thioxo-imidazolidin-1-yl}-acetic acid methyl ester] | > 50 | * (50 < *) |  |  | 
CCOC(=O)CN1C(=O)S/C(=C/c2ccc(-c3ccc([N+](=O)[O-])cc3OC)o2)C1=O [Compound 118, {5-[5-(2-Methoxy-4-nitrophenyl)furan-2-ylmethylene]-2,4-dioxo-thiazolidin-3-yl}-acetic acid ethyl ester] | > 50 | * (50 < *) |  |  | 
COC(=O)CN1C(=O)S/C(=C/c2ccc(-c3ccc(C(=O)O)cc3)o2)C1=O [Compound 79, 4-[5-(3-Methoxycarbonylmethyl-2,4-dioxo-thiazolidin-5-ylidenemethyl)furan-2-yl]benzoic acid] |  |  |  |  | activity at 50 µM ([1]; Table 2, test compound 50 μM, 0.5 nM 125I-BDNF, PC12 cells, 2 h at 4° C., specific binding as percent of control): 10 to 20%; NGF Activity % Maximal Binding ([2]; Table 2): X (40 < X < 50)
NS(=O)(=O)c1ccc(-c2ccc(C=C3C(=O)NC(=S)NC3=O)o2)cc1 [Compound 105, 4-[5-(4,6-Dioxo-2-thioxo-tetrahydro-pyrimidin-5-ylidenemethyl)furan-2-yl]benzenesulfonamide] |  | * (50 < *) |  |  | activity at 50 µM [1]: > 50%
CCCCOC(=O)c1ccc(-c2ccc(/C=C3/SC(=S)N(CC(=O)O)C3=O)o2)cc1 [Compound 12, 4-[5-(3-Carboxymethyl-4-oxo-2-thioxo-thiazolidin-5-ylidenemethyl)furan-2-yl]benzoic acid butyl ester] |  |  | 0 to 10 | * (50 < *) | 
O=C(O)c1ccc(-c2ccc(/C=C3/NC(=O)N(c4cccc(Cl)c4)C3=O)o2)cc1Cl [Compound 36, 2-Chloro-4-{5-[1-(3-chlorophenyl)-2,5-dioxo-imidazolidin-4-ylidenemethyl]furan-2-yl}benzoic acid] |  |  | 10 to 20 | * (50 < *) | 
CCOC(=O)c1ccc(N2NC(=O)/C(=C/c3ccc(-c4cccc(C(=O)O)c4)o3)C2=O)cc1 [Compound 57, 3-{5-[3,5-Dioxo-1-phenyl-(4-ethyl ester)-pyrazolidin-4-ylidenemethyl]furan-2-yl}benzoic acid] |  |  | 40 to 50 | * (50 < *) | 
O=C1NC(=S)N/C1=C/c1ccc(-c2ccc(Cl)c(C(=O)O)c2)o1 [Compound 85, 2-Chloro-5-[5-(5-oxo-2-thioxo-imidazolidin-4-ylidenemethyl)furan-2-yl]benzoic_acid] |  |  |  |  | activity at 50 µM ([1]; Table 3, test compound 50 μM, 0.5 nM 125I-BDNF, PC12 cells, 2 h at 4° C., specific binding as percent of control): > 50%; NGF Activity % Maximal Binding ([2]; Table 3): X (40 < X < 50)
COC(=O)CN1C(=O)S/C(=C\c2ccc(-c3ccc([N+](=O)[O-])cc3)o2)C1=O [Compound 50, {5-[5-(4-Nitrophenyl)furan-2-ylmethylene]-2,4-dioxo-thiazolidin-3-yl}-acetic acid methyl ester] |  |  | 30 to 40 | * (50 < *) | 
Cc1cc(-c2ccc(C=C3C(=O)NC(=S)NC3=O)o2)cc([N+](=O)[O-])c1C [Compound 25, 5-[5-(3,4-Dimethyl-5-nitrophenyl)furan-2-ylmethylene]-2-thioxo-dihydro-pyrimidine-4,6-dione] |  |  |  | * (50 < *) | activity at 50 µM [1]: 0 to 10%
O=C(O)c1cc(-c2ccc(/C=C3\NC(=O)N(Cc4ccc(F)cc4)C3=O)o2)ccc1Cl [Compound 28, 2-Chloro-5-{5-[1-(4-fluorobenzyl)-2,5-dioxo-imidazolidin-4-ylidenemethyl]furan-2-yl}benzoic acid] |  |  | 10 to 20 | * (50 < *) | 
O=C1C(=Cc2ccc(-c3ccc([N+](=O)[O-])cc3)o2)SC(=S)N1Cc1cccnc1 [Compound 59, 5-[5-(4-Nitrophenyl)furan-2-ylmethylene]-3-pyridin-3-ylmethyl-2-thioxo-thiazolidin-4-one] |  |  | 40 to 50 | * (50 < *) | 
O=C1NC(=O)/C(=C\c2ccc(-c3ccc([N+](=O)[O-])cc3Cl)o2)S1 [Compound 33, 5-[5-(2-Chloro-4-nitrophenyl)furan-2-ylmethylene]-thiazolidine-2,4-dione] |  |  | 10 to 20 | * (50 < *) | 
CCOC(=O)c1ccc(-c2ccc(/C=C3/C(=O)NN(c4cccc(C)c4)C3=O)o2)cc1 [Compound 63, 4-[5-(3,5-Dioxo-1-m-tolyl-pyrazolidin-4-ylidenemethyl)furan-2-yl]benzoic acid ethyl ester] |  |  | 40 to 50 | * (50 < *) | 
N=C1NC(=O)C(=Cc2ccc(-c3ccc([N+](=O)[O-])cc3Br)o2)S1 [Compound 103, 5-[5-(2-Bromo-4-nitrophenyl)furan-2-ylmethylene]-2-imino-thiazolidin-4-one] | > 50 | * (50 < *) |  |  | 
O=C1NC(=O)C(=Cc2ccc(-c3ccc([N+](=O)[O-])cc3Cl)o2)C(=O)N1 [Compound 11, 5-[5-(2-Chloro-4-nitrophenyl)furan-2-ylmethylene]-pyrimidine-2,4,6-trione] |  |  |  | * (50 < *) | activity at 50 µM [1]: 0 to 10%
O=C1NN(c2ccc(F)cc2)C(=O)C1=Cc1ccc(-c2ccc([N+](=O)[O-])cc2)o1 [Compound 119, 1-(4-Fluorophenyl)-4-[5-(4-nitrophenyl)furan-2-ylmethylene]-pyrazolidine-3,5-dione] | > 50 | * (50 < *) |  |  | 
O=C(O)c1ccc(-c2ccc(/C=C3/NC(=O)N(Cc4ccccc4F)C3=O)o2)cc1 [Compound 136, 4-{5-[1-(2-Fluorobenzyl)-2,5-dioxo-imidazolidin-4-ylidenemethyl]furan-2-yl}benzoic acid] | > 50 | * (50 < *) |  |  | 
